# Entries after “also recorded” stand apart in the source; their conditions may differ. Residues, ends and D or L forms follow the SMILES beside them.
# Experiments:
# canonical Wnt signaling = experiment: Activity assay (Example 1): TOPflash luciferase reporter in HEK (HEK293-superTOPflash) cells, receptor not specified; assay type: cell-based, human
# Protocol: Human embryonic kidney (HEK) cells were used for screening. These cells have a luciferase construct stably transfected into the genome (see FIG. 2A), such that when the frizzled receptor is activated and β-catenin is increased, the luciferase is activated by transcription and light can be measured.
# The peptides were tested by transfecting the frizzled-1 or the frizzled-2 receptor and addition of UM206(S-S) to the cell culture. For testing antagonistic activity, UM206 was added and the natural ligand Wnt3a was added, which is a natural stimulus for the canonical pathway.
# Transfection and Luciferase Measurement:
# (§1) Plate cells in 12-well plates
# Day 2: Transfection 12-Well Plates • heat Fugene6 and DNA 15 minutes at RT • 2 ml serum-free medium in tube • add 3 μl fugene • add 2 μg DNA • incubate 30 minutes at RT • wash with PBS • add 50 μl transfectiemix • add 1 ml antibiotica-free medium
# Day 3: Add Conditioned Medium or UM206
# Day 4: Luciferase Activity Measurements • remove medium • wash with PBS • add 500 μl ⅕ lysisbuffer • shake for 60 minutes • centrifuge in tube • 20 μl lysaat and 50 μl luciferase in new tube for measurement • vortex • measure
# Three areas of high homology that contained two cysteines are underlined (UM207), (UM208) and (UM206). In FIGS. 9B through 9D, the inhibitory effect of these three peptides on Wnt3a-induced luciferase activity in HEK293-superTOPflash is shown. […] Again, the peptides by themselves had no effect on the luciferase activity.
# The cell lines were cultured in 75 cm^2 culture flasks (Corning, Schiphol, the Netherlands) in Dulbeco's modified essential medium with L-glutamine (2 mM), 10% fetal calf serum (Invitrogen, Merelbeke, Belgium), and 1% gentamycin (Sigma-Aldrich, Zwijndrecht, The Netherlands). Before starting the experiment, the cell lines were treated with plasmocin 25 μg/ml (Invivogen, Toulose, France) and tested with a mycoalert mycoplasma detection kit (Lonza, Rockland Me., USA). Cells were transiently transfected with Fugene6 (Roche, Indianapolis Ind., USA) with plasmid DNA, pcDNA3.1/hygro (Invitrogen) with frizzled-1/2/4 or Wnts 3a-5a or with pcDNA3.0 (Invitrogen) containing the β-catenin or frizzled-5 sequence. After transfection, the cells were cultured for 24 hours in conditioned medium, collected from the cultured L-cells, L-cells with Wnt3a or 5a (Invitrogen). At the same moment the antagonist was added.
# For the luciferase experiments not in HEK cells, the cells were additionally transfected with a TOPflash construct, eight TCF/LEF binding sites cloned into the pTA-Luc vector. Luciferase activity was measured using luciferase assay system (Promega, Madison Wis., USA).
# [1] = tested on: mouse and human Fzd-1 and -2; experiment: Antagonism of activation of mouse and human Fzd-1 and -2 by Wnt3a (data not shown); assay type: cell-based
# Excerpt: In FIG. 3, Panel E, the efficacy of UM206 to block the Wnt3a-induced activation of luciferase activity in HEK293 superTOPflash cells transfected with different Fzds is shown.
# myocardial infarction [2] = experiment: Echocardiography of mice after myocardial infarction; assay type: in vivo; conditions: UM206-treated group post-MI
# Protocol: All animals were subjected to extensive echocardiography studies for the assessment of myocardial infarct size, LV cavity dimensions and ventricular function. Echocardiography examination was performed under 2% isofluorane. Echocardiograms were recorded with Philips Sonos 5500 ultrasound system (Philips, Eindhoven, the Netherlands) using a 20-MHz linear probe.
# myocardial infarction [3] = experiment: Hemodynamic measurements (Millar catheter, left ventricle) of mice after myocardial infarction; assay type: in vivo; conditions: UM206-treated groups post-MI
# Protocol: Cardiac function was further assessed using a Millar pressure recording catheter inserted into the left ventricle. […] These observations further underscore the beneficial effect of UM206 treatment on cardiac function post-MI.
# The animals were anaesthetized with urethane ([…], i.p., Sigma-Aldrich) followed by intubation and connected to a rodent ventilator (Hugo Sachs, March-Hugstetten, Germany). Body temperature was maintained at 37° C. The mice were then allowed to stabilize prior to hemodynamic measurements. A high-fidelity catheter tip micromanometer (Mikro-tip1.4F, SPR-671; Millar Instruments, Houston Tex., USA) was inserted through the right carotid artery into the left ventricular cavity. Ventricular pressure was measured. Maximal positive and negative pressure development (+dP/dt and −dP/dt) and heart rate were determined on a beat-to-beat basis. The heart was then stimulated by an i.v. ramp-infusion of dobutamine (Sigma-Aldrich) using a micro-injection pump (Model 200 Series, KdScientific, Boston, Mass., USA).
# infarct rupture = experiment: Infarct rupture in 12956 mice treated with UM206; assay type: in vivo; conditions: infarct rupture frequency ˜60%; unpublished observations
# Excerpt: Because of the lack of pharmacological tools to intervene in Wnt/Fzd signaling in vivo, only genetic interventions have been reported so far in studies on the role of Wnt signaling in infarct healing. Barandon et al. were the first to show a beneficial effect of overexpression on infarct healing of FrzA, a bovine homologue of soluble frizzled-related protein-1 (sFRP1). They observed a decreased infarct size with elevated numbers of myofibroblasts and increased angiogenesis in the infarcted FrzA transgenic mice (Barandon et al., 2003), which could be confirmed in the present study using an Fzd-1 and -2 antagonist. […] In the mean time, the beneficial effects of sFRP overexpression on infarct healing have been confirmed by Kobayashi et al. (Kobayashi et al., 2009). Taken together, these reports support the observations of the present study and point to a beneficial effect of inhibiting Wnt/Fzd signaling on the wound-healing process after MI.
# [4] = tested on: C-FIT cells (cardiac fibroblasts immortalized with telomerase); experiment: Migration assay (wound/scratch assay) with C-FIT cells overexpressing Fzd-1 or -2; assay type: cell-based, rat
# Protocol: For this assay, we used rat cardiac fibroblasts, which were immortalized with telomerase, the C-FIT cell line. This cell line was characterized previously and resembles features of primary cardiac fibroblasts. C-FIT cells were plated, treated when they were 70% confluent and a wound was made with a pipette tip at the moment of 100% confluence.
# This assay was first tested with the natural ligand Wnt3a, in combination with frizzled-1 and -2 overexpression. […] Next step was to see whether the antagonist could counteract this. (See FIG. 4.)
# as §1
# Transfection (see protocol)
# Addition of conditioned medium
# Make a scratch. This is time point zero.
# Making pictures every six hours and analyzing the scratch width.
# The overexpression of Fzd-1 and -2 in migrating (myo)fibroblasts during infarct healing was one of the first reports of activation of Wnt/Fzd signaling in cardiovascular remodeling (Blankesteijn 1997). To assess the functional relevance of Wnt/Fzd signaling on cardiac fibroblast proliferation, migration and differentiation, a cardiac fibroblast cell line immortalized with telomerase was used, as previously described (Janhunen 2009, Laeremans 2009).
# Cells were plated on day 0, and cultured until 70% confluence before transfection or treatment. […] Scratch width was measured at this time point, and also after 6, 12, and 24 hours.
smiles,measurement,setting,value
"CSCC[C@H](NC(=O)CNC(=O)[C@H](CCC(=O)O)NC(=O)[C@H](CO)NC(=O)[C@@H](NC(=O)[C@H](CCCCN)NC(=O)[C@H](CC(N)=O)NC(=O)[C@H](CS)NC(C)=O)[C@@H](C)O)C(=O)N[C@@H](CC(=O)O)C(=O)NCC(=O)N[C@@H](CS)C(=O)N[C@@H](CCC(=O)O)C(=O)N[C@@H](CC(C)C)C(N)=O [UM206, Ac-Cys-Asn-Lys-Thr-Ser-Glu-Gly-Met-Asp-Gly-Cys-Glu-Leu-NH2] (Ac-CNKTSEGMDGCEL-NH2)",IC50,canonical Wnt signaling,in the nanomolar range
same,activity on the frizzled receptor: antagonist or agonist,canonical Wnt signaling; model of Example 1,very potent antagonist; also recorded: very potent inhibitor of the canonical Wnt signaling
same,effect of the peptide by itself on luciferase activity,canonical Wnt signaling; without Wnt3a,none of the three peptides by itself could induce an increase in luciferase activity; also recorded: no effect
same,antagonizing the activation of mouse and human Fzd-1 and -2 by Wnt3a,[1],fully effective
same,change of ejection fraction versus saline,myocardial infarction [2],doubling of the ejection fraction
same,reduction in end diastolic volume of the left ventricle versus saline,myocardial infarction [2],40%
same,positive and negative dP/dt versus saline,myocardial infarction [3],higher positive dP/dt and a lower negative dP/dt value
same,number of ruptured infarcts,infarct rupture,did not reduce the number of ruptured infarcts
same,effect of UM206 alone on cell migration,[4],no effect on cell migration
same,counteraction of Wnt3a/Wnt5a-induced attenuation of migration,"[4]; UM206 1.10^−8 M, Fzd-1 or -2 overexpression",migration was reset to the migration speed of the control; also recorded: blocked completely; also recorded: block this effect completely

# Source: US20150071856A1, “ANTAGONISTIC PEPTIDES FOR FRIZZLED-1 AND FRIZZLED-2” (Universiteit Maastricht, priority 2013, published 2015)
